Where no end group is shown, it is not given here. [ ]: non-standard residue; d: D form.
System: CTNNB1
Test: In vitro DMD assay: mRNA silencing enhancement by peptide conjugates after siRNA-IV treatment
Assay type: cell-based
Conditions: primary mouse hepatocytes, siRNA-IV 125 nM baseline
Protocol: Cryopreserved primary Mouse hepatocytes (Bioreclamation, LLC) were placed into Collagen Type I coated 96-well plates at 25,000 cells per well in serum-containing InVitroGRO CP media (Bioreclamation, LLC) and allowed 5 hours to attach. Media was replaced with InVitroGRO HI media and cells were treated with siRNA-IV at 125 nM [siRNA] for 1 hour. Media was replaced with InVitroGRO HI media and cells were treated for approximately 16 hours with experimental Peptide conjugates at various concentrations to establish a dose-response curve. Peptide conjugates were washed out after 16 hours with InVitroGRO HI media and cells allowed to incubate for an additional 24 hours. Cells were then lysed and mRNA expression of the siRNA target was measured by RT-qPCR (Applied Biosystems Taqman reagents). mRNA silencing activity of each Peptide conjugate was expressed as an enhancement above the baseline activity of 125 nM siRNA-IV alone with respect to the untreated cells and all siRNA target Ct values were normalized to PPIB mRNA for each well (dddCt) and summarized.
The structure of TGN-S-S-peptide is shown below and the activity data is listed in Table 5 (siRNA-IV concentration was kept at […]).

Substance	In vitro dddCt (vs. baseline SCE dose) (Targeted peptide dose 8 nM)	In vitro dddCt (vs. baseline SCE dose) (Targeted peptide dose 40 nM)	In vitro dddCt (vs. baseline SCE dose) (Targeted peptide dose 200 nM)	In vitro dddCt (vs. baseline SCE dose) (Targeted peptide dose 1000 nM)	In vitro dddCt (vs. baseline SCE dose) (Targeted peptide dose 5000 nM)
TGN-S-S-SEQ ID NO: 1761 (D) ([dC]G[dL][dF]G[dE][dI][dE][dE][dL][dI][dE][dE]G[dL][dE][dN][dW][dI][dD][dW]G[dN]G; not fully specified (residue 1); also: disulfide to TGN peptide via Cys1; listed as Homo sapiens)	0.08	−0.25	−0.22	−0.07	−0.11
TGN-S-S-SEQ ID NO: 1762 (D) ([dC]G[dL][dF]G[dE][dI][dE][dE][dL][dI][dE][dE]G[dL][dE][dN][dF][dI][dD][dW]G[dN]G; not fully specified (residue 1); also: disulfide to TGN peptide via Cys1; listed as Homo sapiens)	−0.07	0.03	−0.17	−0.39	−0.08
TGN-S-S-SEQ ID NO: 1763 (D) ([dC]G[dL][dF]G[dE][dI][dE][dE][dL][dI][dE][dE]G[dL][dE][dN][dL][dW][dD][dW]G[dN]G; not fully specified (residue 1); also: disulfide to TGN peptide via Cys1; listed as Homo sapiens)	−0.13	−0.67	−1.26	−1.44	−1.29
TGN-S-S-SEQ ID NO: 1764 (D) ([dC]G[dL][dF]G[dE][dI][dE][dE][dL][dI][dE][dE]G[dL][dE][dN][dL][dV][dD][dW]G[dN]G; not fully specified (residue 1); also: TGN conjugated via disulfide at Cys1; listed as Homo sapiens)	−0.03	−0.41	−0.78	−0.62	−0.75
TGN-S-S-SEQ ID NO: 1765 (D) ([dC]G[dL][dF]G[dE][dI][dE][dE][dL][dI][dE][dE]G[dL][dE][dN][dL][dI][dE][dW]G[dN]G; not fully specified (residue 1); also: TGN conjugated via disulfide at Cys1; listed as Homo sapiens)	−0.04	−0.38	−0.88	−1.23	−1.23
TGN-S-S-SEQ ID NO: 1772 (D) ([dC]G[dL][dF][dE][dA][dL][dL][dE][dL][dL][dE][dS][dL][dW][dE][dL][dL][dL][dE][dA]G[dY]G; not fully specified (residue 1); also: TGN conjugated via disulfide at Cys1; listed as Homo sapiens)	0.03	−0.15	−0.15	−0.17	−0.08
TGN-S-S-SEQ ID NO: 1775(D) ([dC]G[dL][dF][dE][dA][dL][dL][dE][dL][dL][dE][dS][dL][dW][dE][dL][dL][dL][dE][dA]; not fully specified (residue 1); also: TGN conjugated via disulfide at Cys1; listed as Homo sapiens)	−0.1	−0.14	−0.14	−0.11	−0.37
TGN-S-S-SEQ ID NO: 1777 (D) ([dC]G[dN][dF]G[dE][dI][dE][dE][dL][dI][dE][dE]G[dL][dE][dN][dL][dI][dD][dW]G[dN]G; not fully specified (residue 1); also: TGN conjugated via disulfide at Cys1; listed as Homo sapiens)	−0.18	0.28	−0.13	−0.13	0.09
TGN-S-S-SEQ ID NO: 1778 (D) ([dC]G[dL][dF][dA][dE][dI][dE][dE][dL][dI][dE][dE]G[dL][dE][dN][dL][dI][dD][dW]G[dN]G; not fully specified (residue 1); also: TGN conjugated via disulfide at Cys1; listed as Homo sapiens)	−0.38	−0.57	−0.91	−1.54	–
TGN-S-S-SEQ ID NO: 1779(D) ([dC]G[dL][dF][dE][dE][dI][dE][dE][dL][dI][dE][dE]G[dL][dE][dN][dL][dI][dD][dW]G[dN]G; not fully specified (residue 1); also: TGN conjugated via disulfide at Cys1; listed as Homo sapiens)	−0.18	−0.24	−1.29	−1.52	−1.51
TGN-S-S-SEQ ID NO: 1780 (D) ([dC]G[dL][dF]G[dE][dI][dA][dE][dL][dI][dE][dE]G[dL][dE][dN][dL][dI][dD][dW]G[dN]G; not fully specified (residue 1); also: TGN conjugated via disulfide at Cys1; listed as Homo sapiens)	−0.11	−1.05	−2.83	0.18	−3.2
TGN-S-S-SEQ ID NO: 1781 (D) ([dC][dE][dL][dF]G[dE][dI][dE][dE][dL][dI][dE][dE]G[dL][dE][dN][dL][dI][dD][dW]G[dN]G; not fully specified (residue 1); also: TGN conjugated via disulfide at Cys1; listed as Homo sapiens)	−0.01	−0.02	0.03	−0.01	0.01
TGN-S-S-SEQ ID NO: 1782 (D) ([dC][dA][dL][dF]G[dE][dI][dE][dE][dL][dI][dE][dE]G[dL][dE][dN][dL][dI][dD][dW]G[dN]G; not fully specified (residue 1); also: TGN conjugated via disulfide at Cys1; listed as Homo sapiens)	−0.14	0.43	−0.17	−0.21	–
TGN-S-S-SEQ ID NO: 1784 (D) ([dC]G[dW][dF]G[dE][dI][dE][dE][dL][dI][dE][dE]G[dL][dE][dN][dL][dI][dD][dW]G[dN]G; not fully specified (residue 1); also: TGN conjugated via disulfide at Cys1; listed as Homo sapiens)	0.07	−0.22	−0.57	−1.01	−0.81
TGN-S-S-SEQ ID NO: 1785 (D) ([dC]G[dL][dF]G[dE][dL][dE][dE][dL][dI][dE][dE]G[dL][dE][dN][dL][dI][dD][dW]G[dN]G; not fully specified (residue 1); also: TGN conjugated via disulfide at Cys1; listed as Homo sapiens)	−0.1	−0.44	−1.68	0.84	−2.03
TGN-S-S-SEQ ID NO: 1786 (D) ([dC]G[dL][dF]G[dE][dI][dE][dE][dL][dW][dE][dE]G[dL][dE][dN][dL][dI][dD][dW]G[dN]G; not fully specified (residue 1); also: TGN conjugated via disulfide at Cys1; listed as Homo sapiens)	0.17	0.13	0.06	0.06	0.18
TGN-S-S-SEQ ID NO: 1793 (D) ([dC]G[dL][dL]G[dE][dI][dE][dE][dL][dI][dE][dE]G[dL][dE][dN][dL][dI][dD][dW]G[dN]G; not fully specified (residue 1); also: TGN conjugated via disulfide at Cys1; listed as Homo sapiens)	−0.02	−1.04	−2.36	−2.75	−2.65

Source: US10239957B2, “Peptide containing conjugates for dual molecular delivery of oligonucleotides” (Merck Sharp & Dohme Corp., priority 2013, dated 2019)
